Assay results taken from patent publication US10870635B2, “Compounds and their use as BACE1 inhibitors” (ALLGENESIS BIOTHERAPEUTICS, INC., priority 2015, dated 2020).
Read-outs that look alike come from different tables or passages of the source.

Assays:
[1] = target: pepsin (activated recombinant human pepsinogen A) (Homo sapiens (Human), UniProt P0DJD9); test: Pepsin activity assay; type: biochemical
Protocol: 30 mM stocks of the experimental inhibitor compounds were prepared in DMSO. A 10 mM concentration of the inhibitor was prepared by diluting the 30 mM stock 3-fold in DMSO (30 μl of the [30 mM]:60 μl DMSO). 10-fold serial dilutions of 10 mM and 30 mM stocks were made on a dilution plate..
The pepstatin A inhibitor was received from Tocris Bioscience as 10 mg of lyophilized powder. DMSO was used to reconstitute the powder to a 10 mM concentration, which was aliquoted and stored at −20° C. A 40 μl volume of the 10 mM stock was thawed before use. 10-fold serial dilutions of 10 mM and 3 mM stocks were made in DMSO on a dilution plate.
Using a multichannel pipette, take a 2 μl volume of the diluted samples from the dilution plate into a new polypropylene 96-well plate. […]
After the enzyme addition, the substrate was added to each well in 50 μl volumes. […] The plate was immediately sealed and placed on a shaker set to 350 rpm for approximately 30 sec prior to reading in the Polar Star plate reader at room temperature with the excitation wavelength set at 320 nm, the emission wavelength set at 405 nm. Readings were taken every 41 seconds for approximately 25 minutes.
The selected BACE1 inhibitors in accordance with examples of the invention were then determined for Pepsin activity and target selectivity ratio (Pepsin IC50/BACE1 IC50).

[2] = tested on: cellular production of amyloid β peptide (Aβ40) in 7PA2 CHO cells; test: Cell amyloid-beta production assay (MSD electrochemiluminescence immunoassay); type: cell-based; conditions: 12 hours incubation, read-out: Cell Abeta40 IC50
Description: Amyloid-β (Aβ) is a 33-42-amino acid post-proteolytic peptide generated as the result of the sequential cleavage of amyloid precursor protein (APP) by BACE1 and γ-secretase. Substantial evidence points to aggregation and deposition of certain isoforms of amyloid β peptide in the brain being causal to neurodegeneration and dementia typical of AD. There are two major isoforms of Aβ which are monitored as a biomarker to gain early read on Aβ aggregation: Aβ340 and Aβ342. Increased extracellular accumulation of amyloid β peptide results in the formation of amyloid β peptide oligomers, cerebral amyloid plaques, neurodegeneration, and ultimately brain atrophy, all of which play a pivotal role in AD neuropathological hallmarks.
The reagents for the cell amyloid beta production assay were prepared as follows.
7PA2 CHO cells (licensed from Dr. Dennis Selkoe's laboratory) were plated into 96-well plates at a density of 50,000 cells per […] complete medium (DMEM medium containing 10% fetal bovine serum, L-glutamine, penicillin/streptomycin and 200 μg/ml of G418). Cells were incubated for 16-18 hours in complete medium and the culture medium was aspirated and discarded. Fresh complete medium containing test articles or positive control, LY2886721, within drug concentration range from 0.01 to 100 nM or complete medium only (controls) was added for 12 hours, and the cell culture medium was assayed directly or following a dilution with complete cell culture medium and frozen at −80° C. until it could be assayed for Aβ38, Aβ40 and Aβ42 content using an MSD multiplex electrochemiluminescence immunoassay.
In the Meso Scale Discovery electrochemiluminescence immunoassay, on a block plate, add 150 μL of Diluent 35 to each well, seal the plate with an adhesive plate seal and incubate with shaking for 1 hour at room temperature. Wash and then add detection antibody solution and samples. Wash the plate 3 times with at least 150 μL/well of wash buffer. […] Add 150 μL of 2× Read Buffer T to each well. Read the plate on the MSD imager. No incubation in read buffer is required before reading the plate. […]

[3] = target: recombinant BACE2 (Homo sapiens (Human), UniProt Q9Y5Z0); test: AnaSpec BACE2 fluorescent assay; type: biochemical
Sequence of recombinant BACE2 (Q9Y5Z0 63-518): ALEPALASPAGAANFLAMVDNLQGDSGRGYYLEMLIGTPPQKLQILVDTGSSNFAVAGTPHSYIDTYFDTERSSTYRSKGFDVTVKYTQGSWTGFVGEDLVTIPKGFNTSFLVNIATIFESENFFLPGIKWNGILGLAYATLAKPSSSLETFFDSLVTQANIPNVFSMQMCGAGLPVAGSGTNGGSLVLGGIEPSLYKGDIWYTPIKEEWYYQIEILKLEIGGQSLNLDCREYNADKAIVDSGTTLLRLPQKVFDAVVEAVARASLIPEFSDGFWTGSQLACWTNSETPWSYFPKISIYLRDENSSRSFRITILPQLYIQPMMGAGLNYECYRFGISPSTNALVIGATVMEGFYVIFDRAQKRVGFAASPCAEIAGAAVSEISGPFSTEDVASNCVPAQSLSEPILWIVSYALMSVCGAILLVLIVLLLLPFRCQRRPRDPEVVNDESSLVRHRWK
Protocol: A BACE2 activity assay kit from AnaSpec (Fremont, Calif.) was used to determine the potency of the selected compounds by AnaSpec BACE2 fluorescent assay. To each well of a black 96-well micro plate, 50 μl of the β-secretase substrate (Hylite Fluor 488) diluted 1:100 using assay buffer was first added.
The compounds were serially diluted (1:2) into DMSO from their 10 mM stock concentrations in DMSO. The serially diluted inhibitors were diluted 1:100 into 1× assay buffer in a 96-well polypropylene plate (assay dilution plate). The final concentration of these compounds tested was 300 nM, 150 nM, 75 nM, 37.5 nM, 18.75 nM, 9.375 nM, 4.688 nM, 2.344 nM, 1.172 nM, 0.586 nM, and 0.293 nM.
A volume of 10 μl of the inhibitor from the assay dilution plate, a control inhibitor LY2886721 or inhibitor vehicle was then added to each well of the black 96-well micro plate.
The recombinant BACE2 was diluted in an assay buffer and the final BACE2 was 10.6 nM. The enzyme was added in a volume of 40 μl to each well of a black 96-well micro plate.
The reagents were mixed gently and the assay plate was placed into a POLARstar fluorescent plate reader with excitation wavelength set at 485 nm and the emission wavelength set at 520 nm. The plate reader was set to take readings every 5 minutes for up to 30 minutes or a 30 minute endpoint reading was used.
An appropriate integrated first-order rate equation was used to fit the data accumulated over a 30-40 minute collection period. Dose responses for inhibitors were run in duplicate.

[4] = target: Human recombinant cathepsin D (Homo sapiens (Human), UniProt P07339); test: Cathepsin D activity assay; type: biochemical; conditions: read-out: CatD IC50
Sequence of Human recombinant cathepsin D (P07339 65-412): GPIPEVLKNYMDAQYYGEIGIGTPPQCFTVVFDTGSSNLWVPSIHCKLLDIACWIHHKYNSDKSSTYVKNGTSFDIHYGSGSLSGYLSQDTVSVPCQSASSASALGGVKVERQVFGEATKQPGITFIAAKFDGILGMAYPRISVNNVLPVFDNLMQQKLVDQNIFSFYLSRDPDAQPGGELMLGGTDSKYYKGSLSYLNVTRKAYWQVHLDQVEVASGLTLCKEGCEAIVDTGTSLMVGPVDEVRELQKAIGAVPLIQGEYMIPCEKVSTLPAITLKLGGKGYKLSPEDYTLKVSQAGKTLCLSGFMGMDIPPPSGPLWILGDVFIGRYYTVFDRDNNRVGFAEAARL
Protocol: The development of a CatD activity assay is used to determine any potential cross reactivity for compounds selected from the β-secretase activity assay and to determine the selectivity to BACE1 inhibition. The CatD activity is reported for assessing target selectivity ratio (CatD IC50/BACE1 IC50).
The reagents for the cathepsin D assay were prepared as follows.
Human recombinant cathepsin D stored frozen in 2.0 μl aliquots was thawed and 42 μl of enzyme buffer (0.1M NaOAC, 0.2 M NaCl, pH 3.5) was added and incubated at 37° C. for 30 minutes. After 30 minutes the enzyme was further diluted to a final volume of 4.4 ml in enzyme buffer containing 5.0 mM DTT for immediate use in the cathepsin D assay.
The 7-methoxycoumarin-labeled peptide substrate (ES010) for cathepsin D was supplied as a 6.2 mM stock in DMSO. For use in the cathepsin D assay, the 6.2 mM stock was diluted to a 1.55 mM stock with DMSO. The 1.55 mM peptide stock in DMSO was further diluted 1:100 in reaction buffer (0.1M NaOAC, 0.2M NaCl, 0.1% Tween 20, 5.0 mM DTT, pH3.5) to create a 15.5 μM stock for use in the assay.
DMSO without compound served as a DMSO vehicle control for the cathepsin D assay. For each test compound, 30 μl of each dilution was pipetted into a separate well of a 96-well polypropylene plate. This polypropylene plate was labeled as the DMSO dilution plate and a plate map of test compound locations was made.
Test compounds from the DMSO dilution plate require a 1:100 dilution into reaction buffer before they can be added to the cathepsin D assay plate. To accomplish the 1:100 dilution of test compounds, 2.0 μl of each test compound at each concentration was pipetted from the DMSO dilution plate (using a multi-channel pipette calibrated to accurately dispense a 2.0 μl volume) into a new 96-well polypropylene plate using the plate map created for the DMSO dilution plate. This 96-well plate served as the inhibitor dilution plate. Next, 198 μl of reaction buffer was pipetted into each well of the inhibitor dilution plate (using a multi-channel pipette calibrated for accurate delivery of a 198 μl volume) and the pipetted test compound mixed by gentle up and down pipetting.
A1.0 mM stock of pepstatin A was made in DMSO and aliquotted into 5.0 μl samples for freezing and storage at −20° C. Upon thawing, 45 μl of DMSO (1:10 dilution) was added to create a 100 μM stock of pepstatin A in DMSO. The 100 μM Pepstatin A stock was further diluted 1:10 with DMSO to create a 10 μM stock in DMSO. […]
The assay plate was placed into a fluorescent plate reader with the excitation wavelength set at 320 nm and the emission wavelength set at 405 nm. Readings were collected every minute over a 30 minute collection period.

Sequence of pepsin (activated recombinant human pepsinogen A) (P0DJD9 63-388): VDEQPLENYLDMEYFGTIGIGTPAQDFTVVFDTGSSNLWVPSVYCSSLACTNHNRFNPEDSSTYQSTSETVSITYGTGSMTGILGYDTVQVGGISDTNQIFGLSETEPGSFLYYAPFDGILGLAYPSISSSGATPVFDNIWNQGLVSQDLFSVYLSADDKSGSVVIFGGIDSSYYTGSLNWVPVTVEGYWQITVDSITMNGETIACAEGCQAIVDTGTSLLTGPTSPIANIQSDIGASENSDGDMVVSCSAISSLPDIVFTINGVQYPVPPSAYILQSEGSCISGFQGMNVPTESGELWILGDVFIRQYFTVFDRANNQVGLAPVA

IC50 [1] [nM]	IC50 [3] [nM]	IC50 [4] [nM]	Compound	IC50 ([2]; Cricetulus griseus, CHO, 12 h) [nM]	IC50 [2] [nM]
3140	12	17200	CC#Cc1ccc2sc3ccc([C@]4(C)CS(=O)(=O)C(C)(C)C(N)=N4)cc3c2c1 [Example 103, (R)-5-Amino-3,6,6-trimethyl-3-(8-(prop-1-yn-1-yl)dibenzo[b,d]thiophen-2-yl)-3,6-dihydro-2H-1,4-thiazine 1,1-dioxide]	13	
4380	16	10800	CC#Cc1ccc2sc3cc(F)c([C@]4(C)CS(=O)(=O)C(C)(C)C(=N)N4)cc3c2c1 [Example 109, (R)-5-Amino-3-(3-fluoro-8-(prop-1-yn-1-yl)dibenzo[b,d]thiophen-2-yl)-3,6,6-trim ethyl-3,6-dihydro-2H-1,4-thiazine 1,1-dioxide]	5.5 ± 1.95	5
